Laboratory results from PubChem BioAssay (NCI).
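Exposure lasted 48 hours, with cells grown in 96-well plates and compounds tested at five concentrations. At the TGI there is no net growth.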

Experiments:
Experiment in all cases: NCI anticancer screen, dose series, 48 h
[1] = tested on: HS 578T breast
[2] = tested on: HCT-15 colon
[3] = tested on: NCI-H460 lung
[4] = tested on: SF-539 CNS
[5] = tested on: HT29 colon
[6] = tested on: MOLT-4 leukemia
[7] = tested on: HCC-2998 colon
[8] = tested on: UACC-257 melanoma
[9] = tested on: T-47D breast
[10] = tested on: UACC-62 melanoma
[11] = tested on: CAKI-1 renal
[12] = tested on: MDA-MB-435
[13] = tested on: OVCAR-8 ovarian
[14] = tested on: NCI/ADR-RES ovarian
[15] = tested on: NCI-H226 lung
[16] = tested on: RXF 393 renal
[17] = tested on: U251 CNS
[18] = tested on: HOP-62 NSCLC
[19] = tested on: COLO 205 colon
[20] = tested on: DU-145 prostate
[21] = tested on: MALME-3M melanoma
[22] = tested on: SNB-75 CNS
[23] = tested on: KM12 colon
[24] = tested on: IGROV1 ovarian
[25] = tested on: HOP-92 NSCLC
[26] = tested on: M14 melanoma
[27] = tested on: CCRF-CEM leukemia
[28] = tested on: MDA-N
[29] = tested on: MCF7 breast
[30] = tested on: SK-MEL-5 melanoma
[31] = tested on: A549 NSCLC
[32] = tested on: SK-OV-3 ovarian
[33] = tested on: BT-549 breast
[34] = tested on: HCT-116 colon
[35] = tested on: SF-295 CNS
[36] = tested on: HL-60(TB) leukemia
[37] = tested on: OVCAR-5 ovarian
[38] = tested on: TK-10 renal
[39] = tested on: OVCAR-4 ovarian
[40] = tested on: LOX IMVI melanoma
[41] = tested on: RPMI-8226 leukemia
[42] = tested on: SK-MEL-28 melanoma
[43] = tested on: UO-31 renal
[44] = tested on: ACHN renal
[45] = tested on: EKVX NSCLC
[46] = tested on: K-562 leukemia
[47] = tested on: SW-620 colon
[48] = tested on: PC-3 prostate
[49] = tested on: SF-268 CNS
[50] = tested on: MDA-MB-231 breast
[51] = tested on: 786-0 renal
[52] = tested on: NCI-H522 lung
[53] = tested on: SR leukemia
[54] = tested on: SNB-19 CNS
[55] = tested on: SN12C renal
[56] = tested on: SK-MEL-2 melanoma
[57] = tested on: A498 renal
[58] = tested on: OVCAR-3 ovarian
[59] = tested on: NCI-H23 lung

With `N#C/C(=C\c1ccc(Br)cc1)c1nc(-c2cc3ccccc3oc2=O)cs1` the TGI [1] was 41.1 µM, the TGI [2] was over 50 µM and the TGI [3] was over 50 µM. The TGI [4] was 40.4 µM, the TGI [5] was over 50 µM and the TGI [6] was over 50 µM. For the same compound, the TGI [7] was over 50 µM, the TGI [8] was 33.2 µM and the TGI [9] was over 50 µM. The TGI [10] was 23.7 µM, the TGI [11] was over 50 µM and the TGI [12] was over 50 µM. For the same compound, the TGI [13] was over 50 µM, the TGI [14] was 34.4 µM and the TGI [15] was over 50 µM. For the same compound, the TGI [16] was over 50 µM, the TGI [17] was 20.1 µM and the TGI [18] was 20.1 µM. For the same compound, the TGI [19] was over 50 µM, the TGI [20] was over 50 µM and the TGI [21] was 27.6 µM. For the same compound, the TGI [22] was 30.6 µM, the TGI [23] was over 50 µM and the TGI [24] was over 50 µM. For the same compound, the TGI [25] was 36.6 µM, the TGI [26] was over 50 µM and the TGI [27] was over 50 µM. The TGI [28] was over 50 µM, the TGI [29] was over 50 µM and the TGI [30] was over 50 µM. For the same compound, the TGI [31] was over 50 µM, the TGI [32] was over 50 µM and the TGI [33] was 14.5 µM. It also gave a TGI [34] of over 50 µM, a TGI [35] of over 50 µM and a TGI [36] of over 50 µM. The TGI [37] was over 50 µM, the TGI [38] was 22.9 µM and the TGI [39] was over 50 µM. It also gave a TGI [40] of over 50 µM, a TGI [41] of over 50 µM and a TGI [42] of over 50 µM. For the same compound, the TGI [43] was over 50 µM, the TGI [44] was 26.1 µM and the TGI [45] was over 50 µM. For the same compound, the TGI [46] was over 50 µM, the TGI [47] was over 50 µM and the TGI [48] was over 50 µM. For the same compound, the TGI [49] was over 50 µM, the TGI [50] was 20.6 µM and the TGI [51] was over 50 µM. It also gave a TGI [52] of 16.1 µM, a TGI [53] of over 50 µM and a TGI [54] of 24.1 µM. It also gave a TGI [55] of over 50 µM and a TGI [56] of over 50 µM.

`COC(=O)c1c(O)ccc2c1c1c(n2-c2ccc(OC)cc2)C(=O)c2ccccc2C1=O` showed a TGI [1] of 46.4 µM, a TGI [2] of over 100 µM and a TGI [3] of 61.7 µM. The TGI [4] was 29.9 µM, the TGI [5] was 15.2 µM and the TGI [57] was over 100 µM. It also gave a TGI [58] of 65.2 µM, a TGI [6] of over 100 µM and a TGI [7] of 11.3 µM. The TGI [8] was over 100 µM, the TGI [9] was 66.2 µM and the TGI [11] was 66 µM. For the same compound, the TGI [12] was over 100 µM, the TGI [13] was 33.7 µM and the TGI [14] was 48 µM. For the same compound, the TGI [15] was 73.3 µM, the TGI [16] was 25.7 µM and the TGI [17] was 28.4 µM. It also gave a TGI [18] of 34.5 µM, a TGI [19] of 3.52 µM and a TGI [20] of 48.3 µM. For the same compound, the TGI [21] was 58.4 µM, the TGI [22] was 51.5 µM and the TGI [23] was 77.8 µM. It also gave a TGI [59] of over 100 µM, a TGI [24] of 91.6 µM and a TGI [25] of 36.7 µM. For the same compound, the TGI [26] was over 100 µM, the TGI [27] was over 100 µM and the TGI [28] was over 100 µM. It also gave a TGI [29] of 72.4 µM, a TGI [30] of over 100 µM and a TGI [31] of 32.2 µM. For the same compound, the TGI [32] was 39.2 µM, the TGI [33] was 84.9 µM and the TGI [34] was 30.6 µM. The TGI [35] was 44.1 µM, the TGI [36] was over 100 µM and the TGI [37] was 75.4 µM. For the same compound, the TGI [38] was 39.5 µM, the TGI [39] was 38.2 µM and the TGI [40] was over 100 µM. For the same compound, the TGI [41] was over 100 µM, the TGI [42] was over 100 µM and the TGI [43] was 31.1 µM. The TGI [44] was 25.6 µM, the TGI [45] was 39.6 µM and the TGI [46] was over 100 µM. It also gave a TGI [47] of over 100 µM, a TGI [48] of 74.1 µM and a TGI [49] of 32.4 µM. The TGI [50] was 32.7 µM, the TGI [51] was 29.1 µM and the TGI [52] was 56.3 µM. The TGI [54] was 44.7 µM, the TGI [55] was over 100 µM and the TGI [56] was over 100 µM.
